Positions count from the first letter of the chain named. Calls of active or inactive are those of the source. No cut-off for these calls is given here.
What was measured:
[1] = system: T1, General amino-acid permease GAP1 (Saccharomyces cerevisiae), P19145 [A393C]; test: Activation of yeast Gap1 A393C mutant-mediated amino acid uptake at 10 mM
T1 sequence (whole entry): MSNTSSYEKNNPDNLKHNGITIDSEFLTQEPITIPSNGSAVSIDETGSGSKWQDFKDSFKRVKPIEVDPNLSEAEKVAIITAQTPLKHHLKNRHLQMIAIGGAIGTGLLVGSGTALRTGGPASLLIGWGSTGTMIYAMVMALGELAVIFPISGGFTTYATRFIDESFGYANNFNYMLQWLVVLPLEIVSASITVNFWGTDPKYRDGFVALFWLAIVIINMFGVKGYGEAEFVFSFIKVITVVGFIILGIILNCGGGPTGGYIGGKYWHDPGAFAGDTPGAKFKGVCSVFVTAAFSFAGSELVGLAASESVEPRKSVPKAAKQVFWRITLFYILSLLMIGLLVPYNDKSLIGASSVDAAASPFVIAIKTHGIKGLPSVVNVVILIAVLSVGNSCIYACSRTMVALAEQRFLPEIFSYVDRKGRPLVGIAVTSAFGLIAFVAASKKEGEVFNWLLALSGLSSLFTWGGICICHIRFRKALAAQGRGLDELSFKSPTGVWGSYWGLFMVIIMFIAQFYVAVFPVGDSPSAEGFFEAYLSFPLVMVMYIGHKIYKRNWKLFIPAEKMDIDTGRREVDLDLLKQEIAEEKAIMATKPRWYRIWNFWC

[2] = system: T2, General amino-acid permease GAP1 (Saccharomyces cerevisiae), P19145 [S398C]; test: Induction of yeast Gap1 S398C mutant-mediated trehalose activation at 10 mM
T2 sequence (whole entry): T1 sequence (whole entry) with C393A, S398C

[3] = system: General amino-acid permease GAP1 (Saccharomyces cerevisiae), P19145 [Y395C]; test: Inhibition of yeast Gap1 Y395C mutant-mediated amino acid uptake at 10 mM
[4] = system: T3, General amino-acid permease GAP1 (Saccharomyces cerevisiae), P19145 [M401C]; test: Induction of yeast Gap1 M401C mutant-mediated amino acid uptake at 2 mM in presence of 10 mM MTSEA treated before compound addition
T3 sequence (whole entry): T1 sequence (whole entry) with C393A, M401C

[5] = system: T4, General amino-acid permease GAP1 (Saccharomyces cerevisiae), P19145 [I382C]; test: Induction of yeast Gap1 I382C mutant-mediated trehalose activation at 10 mM
T4 sequence (whole entry): T1 sequence (whole entry) with I382C, C393A

Chain of General amino-acid permease GAP1 (Saccharomyces cerevisiae), P19145 [Y395C] (P19145 whole entry Y395C): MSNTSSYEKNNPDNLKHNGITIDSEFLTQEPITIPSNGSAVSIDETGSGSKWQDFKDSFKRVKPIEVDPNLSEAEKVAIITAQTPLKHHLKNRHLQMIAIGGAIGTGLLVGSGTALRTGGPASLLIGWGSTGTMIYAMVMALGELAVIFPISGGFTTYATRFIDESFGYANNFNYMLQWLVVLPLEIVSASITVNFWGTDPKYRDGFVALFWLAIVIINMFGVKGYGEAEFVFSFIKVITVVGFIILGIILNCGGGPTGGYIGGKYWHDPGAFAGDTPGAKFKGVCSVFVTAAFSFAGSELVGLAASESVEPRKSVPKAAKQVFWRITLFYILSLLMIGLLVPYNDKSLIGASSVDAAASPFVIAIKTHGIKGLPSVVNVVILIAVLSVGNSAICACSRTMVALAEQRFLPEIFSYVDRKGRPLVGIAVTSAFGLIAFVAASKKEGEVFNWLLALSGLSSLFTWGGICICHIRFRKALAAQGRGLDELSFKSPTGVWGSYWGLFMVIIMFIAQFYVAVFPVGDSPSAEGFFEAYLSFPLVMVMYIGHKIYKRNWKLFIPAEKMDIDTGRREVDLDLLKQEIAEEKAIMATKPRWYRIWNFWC

Activity [1]: inactive | Activity [2]: inactive | inhibition [3]: Active | Activity [4]: Active | Activity [5]: inactive
SMILES: NC(=O)NCCC[C@H](N)C(=O)O
